Laboratory results from article PMC7587356, “High-Throughput Screening for Inhibitors of the SARS-CoV-2 Protease Using a FRET-Biosensor” (Molecules, 2020).
Structures can show the parent of a compound that is named as a salt. Where two headings read alike, the source gives them in different places.

Biological target: SARS-CoV-2 3CLpro (Severe acute respiratory syndrome coronavirus 2, UniProt P0DTD1)
Assay: biochemical
Assay type: biochemical
Parameters: Replicate_1 / Replicate_2 / mean / mean (LOPAC_screen_w_protease): unit not given here
Conditions: for inhibition at 5 µM: 4 h; for mean (LOPAC screen with protease) / Replicate_1 (LOPAC screen with protease) / Replicate_2 (LOPAC screen with protease): primary screen at 5 µM
[1] = sheet LOPAC_screen_w_protease, LOPAC1280 primary screen at 5 µM, with protease, mean of the two replicates, read-out: mean
[2] = sheet LOPAC_screen_w_protease, LOPAC1280 primary screen at 5 µM, with protease, replicate 1, read-out: Replicate_1
[3] = sheet LOPAC_screen_w_protease, LOPAC1280 primary screen at 5 µM, with protease, replicate 2, read-out: Replicate_2
[4] = sheet LOPAC_screen_w_protease, LOPAC1280 primary screen with protease, 5 µM compound, mean of the two replicates, read-out: mean
[5] = sheet LOPAC_screen_w_protease, LOPAC1280 primary screen with protease, 5 µM compound, replicate 1, read-out: Replicate_1
[6] = sheet LOPAC_screen_w_protease, LOPAC1280 primary screen with protease, 5 µM compound, replicate 2, read-out: Replicate_2
[7] = sheet LOPAC_screen_w_protease, LOPAC1280 primary screen at 5 µM, with protease, mean of two replicates
[8] = sheet LOPAC_screen_w_protease, LOPAC1280 primary screen at 5 µM, with protease, replicate 1
[9] = sheet LOPAC_screen_w_protease, LOPAC1280 primary screen at 5 µM, with protease, replicate 2
[10] = sheet LOPAC_screen_w_protease, mean of two replicates
[11] = sheet LOPAC_screen_w_protease, replicate 1
[12] = sheet LOPAC_screen_w_protease, replicate 2
[13] = LOPAC1280 primary screen with protease, 5 µM compound, mean of two replicates
[14] = LOPAC1280 primary screen with protease, 5 µM compound, replicate 1
[15] = LOPAC1280 primary screen with protease, 5 µM compound, replicate 2
[16] = LOPAC1280 primary screen with protease, 5 µM compound, replicate 1, read-out: Replicate_1 (LOPAC_screen_w_protease)
[17] = LOPAC1280 primary screen with protease, 5 µM compound, replicate 2, read-out: Replicate_2 (LOPAC_screen_w_protease)
[18] = sheet LOPAC_screen_w_protease, primary screen with protease, 5 µM, mean of two replicates, read-out: mean
[19] = sheet LOPAC_screen_w_protease, primary screen with protease, 5 µM, replicate 1, read-out: Replicate_1
[20] = sheet LOPAC_screen_w_protease, primary screen with protease, 5 µM, replicate 2, read-out: Replicate_2
[21] = sheet LOPAC_screen_w_protease, primary screen with protease, compound at 5 µM, mean of two replicates, read-out: mean
[22] = sheet LOPAC_screen_w_protease, primary screen with protease, compound at 5 µM, replicate 1, read-out: Replicate_1
[23] = sheet LOPAC_screen_w_protease, primary screen with protease, compound at 5 µM, replicate 2, read-out: Replicate_2
[24] = sheet LOPAC_screen_w_protease, LOPAC1280 at 5 µM, mean of two replicates
[25] = sheet LOPAC_screen_w_protease, LOPAC1280 at 5 µM, replicate 1
[26] = sheet LOPAC_screen_w_protease, LOPAC1280 at 5 µM, replicate 2
[27] = sheet LOPAC_screen_w_protease, primary screen with protease, mean of two replicates
[28] = sheet LOPAC_screen_w_protease, primary screen with protease, replicate 1
[29] = sheet LOPAC_screen_w_protease, primary screen with protease, replicate 2
[30] = sheet LOPAC_screen_w_protease, LOPAC1280 primary screen at 5 µM, with protease, mean of the two replicates

NC(=O)CC[C@H](N)C(=O)O [L-Glutamine]
inhibition at 5 µM [1]: 0.871%
inhibition at 5 µM [2]: 2.13%
inhibition at 5 µM [3]: -0.384%

CCOC(=O)C1=C(C)NC(C)=C(C(=O)OC)C1c1cccc([N+](=O)[O-])c1 (stereo not shown) [Nitrendipine]
inhibition at 5 µM [4]: 4.54%
inhibition at 5 µM [5]: 3.89%
inhibition at 5 µM [6]: 5.19%

Nc1ncnc2c1ncn2C1CCCO1 (stereo not shown) [SQ 22536]
mean [7]: -1.0181
Replicate_1 [8]: 0.976
Replicate_2 [9]: -3.012

COc1ccccc1OCC(O)CN1CCN(CC(=O)Nc2c(C)cccc2C)CC1 (stereo not shown) [Ranolazine dihydrochloride]
inhibition at 5 µM (sheet LOPAC_screen_w_protease, LOPAC1280 at 5 µM, mean of two replicates, read-out: mean): 0.975%
inhibition at 5 µM (sheet LOPAC_screen_w_protease, LOPAC1280 at 5 µM, replicate 1, read-out: Replicate_1): 1.18%
inhibition at 5 µM (sheet LOPAC_screen_w_protease, LOPAC1280 at 5 µM, replicate 2, read-out: Replicate_2): 0.768%

Oc1ccc2c3c1O[C@H]1c4[nH]c5ccccc5c4C[C@@]4(O)[C@@H](C2)N(CC2CC2)CC[C@]314 [Naltrindole hydrochloride]
inhibition at 5 µM (read-out: Replicate_1): 3.59%
inhibition at 5 µM (read-out: Replicate_2): 2.54%
inhibition at 5 µM (read-out: mean): 3.06%

NCCc1c[nH]cn1 [Histamine dihydrochloride]
inhibition at 5 µM (read-out: Replicate_1): 3.24%
inhibition at 5 µM (read-out: Replicate_2): -1.24%
inhibition at 5 µM (read-out: mean): 1%

CC(C)N(CCC(=O)c1ccc2ccccc2c1)Cc1ccccc1.Cl [ZM 39923 hydrochloride]
mean (LOPAC screen with protease) [10]: 93.4745
Replicate_1 (LOPAC screen with protease) [11]: 92.2854
Replicate_2 (LOPAC screen with protease) [12]: 94.6636

Br.CCCN(CCC)C1CCc2ccc(O)cc2C1 (racemic) [(±)-7-Hydroxy-DPAT hydrobromide]
mean (LOPAC_screen_w_protease) [13]: 1.681
Replicate_1 (LOPAC_screen_w_protease) [14]: 3.951
Replicate_2 (LOPAC_screen_w_protease) [15]: -0.5891

O=c1[nH]c2cc(C(F)(F)F)ccc2n1-c1cc(C(F)(F)F)ccc1O [NS-1619]
mean (LOPAC screen with protease) [10]: 7.54
Replicate_1 (LOPAC screen with protease) [11]: 6.544
Replicate_2 (LOPAC screen with protease) [12]: 8.536

COC(=O)[C@H]1[C@H]2C[C@@H]3c4[nH]c5cc(OC)ccc5c4CCN3C[C@H]2C[C@@H](OC(=O)c2cc(OC)c(OC)c(OC)c2)[C@@H]1OC [Reserpine]
inhibition at 5 µM (read-out: Replicate_1 (LOPAC_screen_w_protease)): 2.93%
inhibition at 5 µM (read-out: Replicate_2 (LOPAC_screen_w_protease)): 0.694%

O=C(O)c1cccnc1C(=O)O [Quinolinic acid]
inhibition at 5 µM [1]: 0.58%
inhibition at 5 µM [2]: -0.228%
inhibition at 5 µM [3]: 1.39%

Cc1cn[nH]c1.Cl [4-Methylpyrazole hydrochloride]
mean (sheet LOPAC_screen_w_protease, LOPAC1280 primary screen with protease, 5 µM compound, mean of the two replicates): 4.54
Replicate_2 (sheet LOPAC_screen_w_protease, LOPAC1280 primary screen with protease, 5 µM compound, replicate 2): 6.559

NCCc1c[nH]c2ccc(O)cc12 [Serotonin hydrochloride]
inhibition at 5 µM [16]: 2.37%
inhibition at 5 µM [17]: 1.09%
mean (LOPAC_screen_w_protease) [13]: 1.729

S=C(NC1CCCCC1)N1CCC(c2cnc[nH]2)CC1 [Thioperamide maleate]
inhibition at 5 µM [18]: -0.179%
inhibition at 5 µM [19]: -0.586%
inhibition at 5 µM [20]: 0.227%

CC(C)[C@@H]1NC(=O)[C@H](CCCCN)NC(=O)[C@@H](Cc2c[nH]c3ccccc23)NC(=O)[C@H](Cc2ccc(O)cc2)NC(=O)[C@H](C)N(C)C(=O)[C@H](Cc2ccccc2)NC1=O [Seglitide]
inhibition at 5 µM [16]: 3.58%
inhibition at 5 µM [17]: -0.291%
mean (LOPAC_screen_w_protease) [13]: 1.643

CC1COc2c(N3CCN(C)CC3)c(F)cc3c(=O)c(C(=O)O)cn1c23 (stereo not shown) [Ofloxacin]
inhibition at 5 µM [4]: 6.37%
inhibition at 5 µM [5]: 5.61%
inhibition at 5 µM [6]: 7.14%

CSC(N)=NCCC[C@H](N)C(=O)O [S-Methyl-L-thiocitrulline acetate]
inhibition at 5 µM [21]: 2.62%
inhibition at 5 µM [22]: 2.21%
inhibition at 5 µM [23]: 3.04%

O=C(O)c1ccccc1Nc1cccc(OCc2ccc3ccccc3n2)c1 [SR 2640]
inhibition at 5 µM [16]: 1.95%
inhibition at 5 µM [17]: 1.04%
mean (LOPAC_screen_w_protease) [13]: 1.4964

C[C@]12CCC(=O)C=C1CC[C@@H]1[C@@H]2[C@@H](O)C[C@@]2(C)[C@H]1CC[C@]2(O)C(=O)COC(=O)CCC(=O)[O-].[Na+] [Hydrocortisone 21-hemisuccinate sodium]
mean [24]: 1.066
Replicate_1 [25]: 1.635
Replicate_2 [26]: 0.4974

NCC(CP(=O)(O)O)c1ccc(Cl)cc1 (stereo not shown) [Phaclofen]
mean [24]: 1.154
Replicate_1 [25]: -0.2982
Replicate_2 [26]: 2.606

CN/C(=N/CCSCc1nc[nH]c1C)NC#N [Cimetidine]
inhibition at 5 µM (read-out: Replicate_1): 1.76%
inhibition at 5 µM (read-out: Replicate_2): 2.91%
inhibition at 5 µM (read-out: mean): 2.34%

Cc1ccccc1/C=C/C1=NCCN1 [Metrazoline oxalate]
inhibition at 5 µM [16]: 2.83%
inhibition at 5 µM [17]: 0.879%
mean (LOPAC_screen_w_protease) (LOPAC1280 primary screen with protease, 5 µM compound, mean of the two replicates): 1.853

NCC(CC(=O)O)c1ccc(Cl)cc1 (racemic) [(±)-Baclofen]
mean [27]: 2.345
Replicate_1 [28]: 1.225
Replicate_2 [29]: 3.465

Cc1c(CC(C)(C)C(=O)O)n(Cc2ccc(Cl)cc2)c2ccc(F)cc12 [L-655,240]
mean (LOPAC_screen_w_protease) [13]: 1.677
Replicate_1 (LOPAC_screen_w_protease) [14]: 2.414
Replicate_2 (LOPAC_screen_w_protease) [15]: 0.9392

C=CCN1CC[C@]23CCCC[C@H]2[C@H]1Cc1ccc(O)cc13 [Levallorphan tartrate]
inhibition at 5 µM [4]: 4.19%
inhibition at 5 µM [5]: 5.56%
inhibition at 5 µM [6]: 2.81%

CC(=O)NNC(=O)N1Cc2ccccc2Oc2ccc(Cl)cc21 [SC 19220]
mean (sheet LOPAC_screen_w_protease, primary screen with protease, 5 µM, mean of two replicates): 0.1868
Replicate_1 (sheet LOPAC_screen_w_protease, primary screen with protease, 5 µM, replicate 1): 1.1062
Replicate_2 (sheet LOPAC_screen_w_protease, primary screen with protease, 5 µM, replicate 2): -0.7326

O=S(=O)(c1cccc2cnccc12)N1CCNCC1 [HA-100]
mean [30]: 0.7375
Replicate_1 [8]: 1.4906
Replicate_2 [9]: -0.01568

CC(C)COC(=O)OCN1C(=O)CN(CCN2CC(=O)N(COC(=O)OCC(C)C)C(=O)C2)CC1=O [Sobuzoxane]
inhibition at 5 µM (sheet LOPAC_screen_w_protease, primary screen with protease, mean of two replicates, read-out: mean): 2.23%
inhibition at 5 µM (sheet LOPAC_screen_w_protease, primary screen with protease, replicate 1, read-out: Replicate_1): 2.79%
inhibition at 5 µM (sheet LOPAC_screen_w_protease, primary screen with protease, replicate 2, read-out: Replicate_2): 1.66%

C[C@H](Cc1ccc(OCC(=O)[O-])cc1)NC[C@H](O)c1cccc(Cl)c1.[Na+] [BRL 37344 sodium]
mean [27]: 2.226
Replicate_1 [28]: 0.8642
Replicate_2 [29]: 3.588

CCN(CC)C(=O)N[C@H]1C[C@@H]2c3cccc4[nH]cc(c34)C[C@H]2N(C)C1 [R(+)-Terguride]
mean [30]: 0.4418
Replicate_1 [8]: 0.9662
Replicate_2 [9]: -0.08256

CN1CC[C@@]2(C)c3cc(O)ccc3N(C)[C@@H]12.O=C(O)/C=C/C(=O)O [(-)-Eseroline fumarate]
mean (LOPAC screen with protease) [10]: 88.3904
Replicate_1 (LOPAC screen with protease) [11]: 89.8661
Replicate_2 (LOPAC screen with protease) [12]: 86.9147

CC(C)CN(C)c1nc(N)c(C(=O)N=C(N)N)nc1Cl [5-(N-Methyl-N-isobutyl)amiloride]
inhibition at 5 µM [1]: 0.449%
inhibition at 5 µM [2]: 0.238%
inhibition at 5 µM [3]: 0.66%

NS(=O)(=O)c1cc2c(cc1Cl)NC(C1CC3C=CC1C3)NS2(=O)=O (stereo not shown) [Cyclothiazide]
inhibition at 5 µM [21]: 2.93%
inhibition at 5 µM [22]: 4.25%
inhibition at 5 µM [23]: 1.61%

C=CC1=C(C)c2cc3[nH]c(cc4nc(cc5[nH]c(cc1n2)c(C)c5CCC(=O)O)C(CCC(=O)O)=C4C)c(C)c3C=C [Protoporphyrin IX disodium]
inhibition at 5 µM (read-out: Replicate_1): 2.66%
inhibition at 5 µM (read-out: Replicate_2): 2.42%
inhibition at 5 µM (read-out: mean): 2.54%

CN1CCN(C2=Nc3ccccc3Oc3ccc(Cl)cc32)CC1 [Loxapine succinate]
inhibition at 5 µM [18]: -0.686%
inhibition at 5 µM [19]: -0.577%
inhibition at 5 µM [20]: -0.795%

COc1ccccc1N1CCN(CCCNc2c(C)c(=O)n(C)c(=O)n2C)CC1 [Urapidil, 5-Methyl-]
mean [7]: -1.384
Replicate_1 [8]: -1.313
Replicate_2 [9]: -1.455
